This note sets out measurements from US10821115B2, “Compounds that inhibit Mcl-1 protein” (priority 2017, dated 2020).

Test [1] deals with human multiple myeloma cell line, OPM-2. As to the kind of experiment: Cell viability assay (OPM-2 10 FBS), CellTiter-Glo. It is filed as cell-based. As to conditions: Homo sapiens, OPM-2, 16 h. Summed up: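 Serially diluted test compounds are incubated 16 h with cells (3000/well) in RPMI 1640 supplemented with 10% FBS. Viability is then measured by luminescence and IC50 calculated by 4-parameter logistic fit.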

The target in test [2] is recombinant human Mcl-1 (residues 171-327) / Bim interaction (Homo sapiens (Human), UniProt Q07820). As to the kind of experiment: biochemical. The class given is binding. The settings on record: read-out: Mcl-1 HTRF IC50.
Setting [3] is: read-out: OPM-2 10% FBS IC50 IP, OPM-2 cells, 10% FBS, 16 h, CellTiter-Glo.
Where [4] appears, read: TR-FRET, Mcl-1(171-327) / biotin-Bim (51-76).

Like-named read-outs stand apart in the source and are kept apart here.

Sequence of recombinant human Mcl-1 (residues 171-327) / Bim interaction (Q07820 171-327): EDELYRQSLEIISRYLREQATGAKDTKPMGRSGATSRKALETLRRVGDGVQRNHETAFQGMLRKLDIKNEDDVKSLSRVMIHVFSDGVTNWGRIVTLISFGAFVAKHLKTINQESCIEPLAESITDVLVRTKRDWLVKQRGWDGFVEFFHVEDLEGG

As to `CO[C@@]1(CN2CCOC3(COC3)C2)/C=C/C[C@H](C)[C@@H](C)S(=O)(=O)NC(=O)c2ccc3c(c2)N(C[C@@H]2CC[C@H]21)C[C@@]1(CCCc2cc(Cl)ccc21)CO3` [Example 198, (1S,3′R,6′R,7′S,8′E,11′S,12′R)-6-chloro-7′-(2,5-dioxa-8-azaspiro[3.5]non-8-ylmethyl)-7′-methoxy-11′,12′-dimethyl-3,4-dihydro-2H,15′H-spiro[naphthalene-1,22′-[20]oxa[13]thia[1,14]diazatetracyclo [14.7.2.0~3,6~.0~19,24~]pentacosa[8,16,18,24]tetraen]-15′-one 13′,13′-dioxide], the IC50 was 1310 nM in test [1] (read-out: OPM-2 10% FBS IC50 IP, OPM-2 cells, 10% FBS, 16 h incubation) and 0.181 nM in test [2] (0.1 nM Mcl-1(171-327), 0.05 nM biotin-Bim (51-76)).

Turning to `C[C@@H]1[C@@H](C)C/C=C/[C@](O)(c2cnccc2F)[C@@H]2CC[C@H]2CN2C[C@@]3(CCCc4cc(Cl)ccc43)COc3ccc(cc32)C(=O)NS1(=O)=O` (stereo in doubt) [Example 100537], the IC50 in test [1] (setting [3]) was found to be 256 nM; in test [2] (setting [4]), 0.115 nM.

`CO[C@@]1(CC=O)/C=C/C[C@H](C)[C@@H](C)S(=O)(=O)NC(=O)c2ccc3c(c2)N(C[C@@H]2CC[C@H]21)C[C@@]1(CCCc2cc(Cl)ccc21)CO3` [Example 100323, ((1S,3′R,6′R,7′S,8′E,11′S,12′R)-6-chloro-7′-methoxy-11′,12′-dimethyl-13′,13′-dioxido-15′-oxo-3,4-dihydro-2H-spiro[naphthalene-1,22′-[20]oxa[13]thia[1,14]diazatetracyclo [14.7.2.0~3,6~.0~19,24~]pentacosa[8,16,18,24]tetraen]-7′-yl)acetaldehyde]: the values for the IC50 in test [1] (setting [3]) and in test [2] (setting [4]) were 1250 nM and 0.477 nM, respectively.

For `CO[C@@]1(CCN2CCN(C)C(=O)C2)/C=C/C[C@H](C)[C@@H](C)S(=O)(=O)NC(=O)c2ccc3c(c2)N(C[C@@H]2CC[C@H]21)C[C@@]1(CCCc2cc(Cl)ccc21)CO3` [Example 100430, (1S,3′R,6′R,7′S,8′E,11′S,12′R)-6-chloro-7′-methoxy-11′,12′-dimethyl-7′-(2-(4-methyl-3-oxo-1-piperazinyl)ethyl)-3,4-dihydro-2H,15′H-spiro[naphthalene-1,22′-[20]oxa[13]thia[1,14]diazatetracyclo [14.7.2.0~3,6~.0~19,24~]pentacosa[8,16,18,24]tetraen]-15′-one 13′,13′-dioxide], the IC50 in test [1] (setting [3]) was 358 nM; in test [2] (setting [4]), 0.057 nM.

`CO[C@]1(c2cnc(Cl)n2C)/C=C/C[C@H](C)[C@@H](C)S(=O)(=O)NC(=O)c2ccc3c(c2)N(C[C@@H]2CC[C@H]21)C[C@@]1(CCCc2cc(Cl)ccc21)CO3` (single isomer, unassigned) [Example 100539]: the results for the IC50 in test [1] (setting [3]) and in test [2] (setting [4]) were 727 nM and 0.144 nM, respectively.

Regarding `C[C@@H]1[C@@H](C)C/C=C/[C@@](O)(c2ccncc2F)[C@@H]2CC[C@H]2CN2C[C@@]3(CCCc4cc(Cl)ccc43)COc3ccc(cc32)C(=O)NS1(=O)=O` (single isomer, unassigned) [Example 100370], the values for the IC50 in test [1] (setting [3]) and in test [2] (setting [4]) were 258 nM and 0.153 nM, respectively.

For `COCC#C[C@@]1(OC)/C=C/C[C@H](C)[C@@H](C)S(=O)(=O)NC(=O)c2ccc3c(c2)N(C[C@@H]2CC[C@H]21)C[C@@]1(CCCc2cc(Cl)ccc21)CO3` [Example 100343, (1S,3′R,6′R,7′R,8′E,11′S,12′R)-6-chloro-7′-methoxy-7′-(3-methoxy-1-propyn-1-yl)-11′,12′-dimethyl-3,4-dihydro-2H,15′H-spiro[naphthalene-1,22′-[20]oxa[13]thia[1,14]diazatetracyclo [14.7.2.0~3,6~.0~19,24~]pentacosa[8,16,18,24]tetraen]-15′-one 13′,13′-dioxide], the values for the IC50 in test [1] (setting [3]) and in test [2] (setting [4]) were 617 nM and 2.51 nM, respectively.
